Data taken from patent publication US20060030537A1, “Ceramide kinase and uses thereof” (priority 2004, published 2006).

Assays:
L929 fibroblasts [1] = experiment: PGE2 synthesis in L929 fibroblasts; type: cell-based; settings: L929 fibroblasts that do not express COX-2
Procedure: (§1) FIGS. 3A-3B. FIG. 3A. The effects of ceramide-1-phosphate on TXB2 synthesis. A549 cells (1×10^5) were treated with D-e-C16 ceramide-1-phosphate (1 μM) solubilized in 2% dodecane/98% ethanol (final concentration in treatments was 0.002% dodecane/0.098% ethanol (EtOH)) for the indicated times. The results are presented as % control of TXB2 controlled for equivalent number of cells by MTT assay. Data are representative of 3 separate determinations on 2 separate occasions. FIG. 3B. The effects of ceramide-1-phosphate on AA release and PGE2 synthesis in L929 fibroblasts. L929 cells (5×10^4) were labeled overnight with 5 μCi/mL [^3H]-arachidonic acid (5 nM). Cells were washed and placed in DMEM supplemented with 2% fetal bovine serum for two hours. Cells were then treated with 2.5 μM D-e-C16 ceramide-1-phosphate (solubilized in 98% ethanol/2% dodecane) for the indicated times. […]
(§2) Quantification of prostaglandin E2 and thromboxane B2 synthesis: For measurement of PGE2 and TXB2 levels, aliquots of media were taken at indicated time points and assayed according to manufacturer's instructions using the prostaglandin E2 and thromboxane B2 monoclonal EIA Kit from Cayman Chemical. […] Results were controlled for equivalent number of cells quantified by MTT assay.

A549 cells [2] = experiment: Quantification of arachidonic acid (AA) release in A549 cells; type: cell-based; settings: for AA release (lipid specificity): 1 μM lipid, 2 hours
Procedure: (§3) Cell Culture: A549 lung adenocarcinoma cells (epithelial-derived) were grown in low glucose DMEM (Invitrogen) supplemented with L-glutamine, 10% (v/v) fetal bovine serum (Invitrogen), 200 U/ml of penicillin G sodium, and 200 μg/ml of streptomycin sulfate. Cells were maintained under 80% confluency and standard incubator conditions (humidified atmosphere, 95% air, 5% CO2, 370 C). For treatment, cells were incubated for 2 hours in low glucose DMEM (Invitrogen) supplemented with L-glutamine, 2% (v/v) fetal bovine serum (Invitrogen), 200 U/ml of penicillin G sodium, and 200 μg/ml of streptomycin sulfate prior to the addition of agonist.
(§4) Quantification of arachidonic acid (AA) release: A549 cells (5×10^4) were labeled overnight with 5 μCi/mL [^3H]-AA (5 nM) (NEN). Cells were washed and incubated in DMEM supplemented with 2% fetal bovine serum for 2 hours. Following treatment, media was transferred to 1.5 mL polypropylene tubes, centrifuged at 10,000×g, and ^3H-AA cpm determined by scintillation counting. Results were controlled for equivalent number of cells quantified by MTT assay as described (Chalfant, C. E., Rathman, K., Pinkerman, R. L., Wood, R. E., Obeid, L. M., Ogretmen, B., and Hannun, Y. A. (2002) J. Biol. Chem. 277, 12587-12595) and by verification of total AA labeling by scintillation counting. For the experiments in FIG. 4, purified SMase D was obtained from Dr. Alfred H. Merrill, Jr., and SMase C (purified from Bacillus cereus) was obtained commercially from Sigma.
RNAi design and transfections: Knock-downs of ceramide kinase were performed essentially as described using sequence specific siRNA reagents (http:www.mpibpc.gwdg.de/abteilungen/100/105/sirna.html) (Lassus, P., Opitz-Araya, X., and Lazebnik, Y. (2002) Science 297, 1352-1354) using human ceramide kinase RNAi starting 142 nucleotides from start codon ([…]dTd (SEQ ID NO: 3) and […]dTd (SEQ ID NO:4)). All sequences were evaluated against the database using the NIH blast program to test for specificity (Xeragon, A Qiagen Company). A549 cells (3×10^4) were transfected with the 21-nucleotide duplexes using OligofectAMINE (Invitrogen) as recommended by the manufacturer. Following the 4 hour transfection, cells were treated and assayed for AA release or PGE2 synthesis at 26 hours post-transfection.

COX-2 = COX-2 expression by western immunoblotting; type: cell-based
protein phosphatase-1 = experiment: Inhibition of protein phosphatase-1; type: biochemical
protein phosphatase 2A = experiment: Inhibition of protein phosphatase 2A; type: biochemical
L929 fibroblasts [3] = experiment: AA release in L929 fibroblasts; type: cell-based; settings: 1 μM, after 1 hour
Procedure: as §1, with “hours.” for “hours. Cells were then treated with 2.5 μM D-e-C16 ceramide-1-phosphate (solubilized in 98% ethanol/2% dodecane) for the indicated times.”
as §4, with “Cells were washed and incubated in DMEM supplemented with 2% fetal bovine serum for 2 hours.” left out, “For the experiments in FIG. 4, purified SMase D was obtained from Dr. Alfred H. Merrill, Jr., and SMase C (purified from Bacillus cereus) was obtained commercially from Sigma.” left out

A549 cells [4] = experiment: Quantification of thromboxane B2 synthesis in A549 cells (EIA); type: cell-based; settings: 1 μM
Procedure: as §1, §2

A549 cells [5] = experiment: Quantification of prostaglandin E2 synthesis in A549 cells (EIA); type: cell-based; settings: 2.5 μM, only after 1 hour
Procedure: as §3
Quantification of prostaglandin E2 and thromboxane B2 synthesis: For measurement of PGE2 and TXB2 levels, aliquots of media were taken at indicated time points and assayed according to manufacturer's instructions using the prostaglandin E2 and thromboxane B2 monoclonal EIA Kit from Cayman Chemical. Briefly, media containing PGE2 or TXB2 competes with PGE2 or TXB2 acetylcholinesterase conjugate for a limited amount of monoclonal antibody. The antibody-PGE2 or -TXB2 conjugate binds to a goat-anti-mouse antibody previously attached to the 96-well plate. The plate is washed to remove unbound reagents and then the substrate for acetylcholinesterase is provided. […] Results were controlled for equivalent number of cells quantified by MTT assay. […]

C-1-P levels = experiment: Ceramide-1-phosphate levels by pulse-labeling with D-e-C6 NBD-ceramide in A549 cells; type: cell-based
Procedure: (§5) FIGS. 5A-5C. IL-1β and calcium ionophore increase ceramide-1-phosphate production and ceramide kinase activity. FIGS. 5A and 5B. The effect of IL-1 and A23187 on C-1-P levels and AA liberation. A549 cells (2×10^5) were labeled overnight with 10 μCi/mL [^3H]-arachidonic acid (10 nM), washed, and then treated with either 2.5 ng/mL of IL-1β (FIG. 5A) or 1 μg/mL of A23187 (FIG. 5B) for the indicated times. Two hours prior to Bligh-Dyer extraction, cells were chased with 20 μM of D-e-C6 NBD-ceramide (Matreya). At the appropriate times, media was taken for AA analysis, and lipids from the cells were extracted by the Bligh-Dyer method followed by analysis of NBD-C-1-P formation. Data are presented as % control of C-1-P levels (J) and AA release (B). Data are representative of three separate determinations on 2 separate occasions. FIG. 5C. IL-1β and calcium ionophore increase ceramide kinase activity. A549 cells (5×10^5) were treated with either 2.5 ng/mL of IL-1β for 3.5 hours or 1 μg/mL of A23187 for 5 minutes. Cells were then washed, lysed in assay buffer, and assayed for ceramide kinase activity. Data is presented as % control of ceramide kinase activity (Arbitrary densitometry units of fluorescent NBD-C-1-P produced/min/mg of total cellular protein). Data are representative of three separate determinations on 2 separate occasions.
Quantification of ceramide-1-phosphate levels by pulse-labeling with D-e-C6 NBD-ceramide: Two hours prior to Bligh-Dyer extraction, cells were chased with 20 μM of D-e-C6 NBD-ceramide (Matreya). At the appropriate times, lipids were extracted by the Bligh-Dyer method, analyzed for NBD-C-1-P formation using TLC analysis, and results normalized to total lipid phosphate as described (Perry, D. K., Bielawska, A., and Hannun, Y. A. (2000) Methods Enzymol. 312, 22-31).

ceramide kinase = experiment: Ceramide kinase assay on lysates of treated or transfected A549 cells; type: cell-based, human
Procedure: as §5
FIGS. 6A-6B. Ceramide kinase RNAi downregulates endogenous ceramide kinase activity and mRNA levels. FIG. 6A. The effect of ceramide kinase RNAi on endogenous ceramide kinase activity. […] Following the same procedure as outlined in FIG. 6A, total RNA was extracted and analyzed via logarithmic reverse-transcriptase polymerase chain reaction for human ceramide kinase and 18s ribosomal RNA. […]
Ceramide Kinase Assay: Ceramide kinase activity was measured as described previously with slight modifications (Bajjalieh, S., and Batchelor, R. (2001) Methods Enzymol. 311, 207-215). […] Following Bligh-Dyer extraction, lipids were separated by thin layer chromatography, and NBD-C-1-P was visualized/quantified by fluorescent phosphorimaging.

## CCCCCCCCCCCCC/C=C/[C@@H](O)[C@H](COP(=O)(O)O)NC(=O)CCCCCCCCCCCCCCC [C-1-P, D-erythro-C16 ceramide-1-phosphate]
L929 fibroblasts [1]
  PGE2 synthesis/release: not observed
A549 cells [2]
  concentration as low as which induces a significant increase in AA release: 100 nM
  AA release (lipid specificity): induced significant AA release
A549 cells [2]; 2.5 μM, after 20 minutes
  maximal early increase in AA release: approximately 2 fold
A549 cells [2]; 2.5 μM, after 1 hour, following reuptake
  AA release: sustained increase
A549 cells [2]; 8 hours, read-out: EC50 of effect on AA release
  EC50: 400 nM
COX-2
  expression of COX-2: no effect
Protein phosphatase-1
  IC50: 50 nM
Protein phosphatase 2A
  IC50: 50 nM
L929 fibroblasts [3]
  AA release over basal release: 225%
A549 cells [4]; after 2 hours
  increase of TXB2: 2.5 fold
A549 cells [4]; after 4 hours
  increase of TXB2: 11 fold
A549 cells [5]
  PGE2 synthesis: Increased

## di-oleoylglycerol [DAG]
A549 cells [2]
  AA release (lipid specificity): Only C-1-P induced significant AA release

## CCCCCCCC/C=C\CCCCCCCC(=O)OC[C@H](COP(=O)(O)O)OC(=O)CCCCCCC/C=C\CCCCCCCC [PA, di-oleoyl phosphatidic acid]
A549 cells [2]
  AA release (lipid specificity): Only C-1-P induced significant AA release

## CCCCCCCCCCCCC/C=C/[C@@H](O)[C@H](CO)NC(=O)CCCCCCCCCCCCCCC [CER, D-erythro C16 ceramide]
A549 cells [2]
  AA release (lipid specificity): small increase
A549 cells [2]; 8 hours
  AA release, long term treatment: no further increase

## IL-1β
C-1-P levels; 2.5 ng/mL, after 4 hours
  increase in C-1-P levels: 242%
Ceramide kinase; 2.5 ng/mL, 3.5 hours
  increase of ceramide kinase activity: 187%

## CCCCCCCCCCCCC/C=C/[C@@H](O)[C@@H](N)COP(=O)(O)O [S-1-P, D-erytho-sphingosine-1-phosphate]
A549 cells [2]
  AA release (lipid specificity): Only C-1-P induced significant AA release

## CNc1ccc2oc(C[C@H]3O[C@@]4(CC[C@H]3C)O[C@H]([C@H](C)C(=O)c3ccc[nH]3)[C@H](C)C[C@H]4C)nc2c1C(=O)O [A23187]
A549 cells [2]; 1 μg/mL
  time to increased AA release: within minutes
C-1-P levels; 1 μg/mL, after 10 minutes
  maximal increase in C-1-P levels: approximately 4 fold
C-1-P levels; 1 μg/mL, within 5 minutes of treatment
  C-1-P levels: significant increase
Ceramide kinase; 1 μg/mL, 5 minutes
  increase of ceramide kinase activity: 216%
